Tests used:
Type in all cases: physicochemical
[1] = Stability of treprostinil diethanolamine at ambient and refrigerated environments; settings: 14 days
Experimental: (§1) Treprostinil diethanolamine was determined to be stable for 14 days at both ambient and refrigerated environments.

[2] = Complexation of treprostinil with cholestyramine ion-exchange resins (PUROLITE, DUOLITE); unbound drug assayed by UV at 270 nm
Experimental: (§2) A UV absorbance measurement was conducted with an approximate 0.1 mg/mL treprostinil diolamine solution with a Fluostar Omega BMG Labtech UV spectrophotometer from 220 nm to 350 nm to determine the λmax. Two standard curves were established with known concentrations of treprostinil at 228 nm and 270 nm. The time to achieve equilibrium between bound and unbound treprostinil to the IER was determined. One gram of resin was added to 100 mL of 10 mg/mL treprostinil solution. The suspension was stirred for four hours and 1 -mL samples were taken at 30, 60, 90, 120, 180, and 240 minutes. Each sample was filtered through a 0.45-μm PTFE filter, and the resulting solution was assayed by UV spectrophotometry for treprostinil concentration. Complexation experiments were conducted with known concentrations of treprostinil and one gram of resin at ratios of 1:0.5, 1:1, 1:2, and 1:4, resin:treprostinil (w/w). Two resins, PUROLITE™ and DUOLITE™, were evaluated separately. The amount of treprostinil complexed per gram of resin was calculated based on the difference between the initial and final treprostinil concentration. The percent loading efficiency was calculated based on the equation: (1-[unbound treprostinil]/[initial treprostinil]) * 100. Photographs were taken for each resin before and after complexation with treprostinil using a Leica DM IL LED light microscope and Leica DMC2900 microscope camera.
FIGS. 1-6 present the results of experiments. […] FIGS. 2A and 2B show calibration curves for determining a concentration of unbound treprostinil (diethanolamine) based on treprostinil absorbance at 228 nm (2A) and 270 nm (2B). The 270 nm curve was used to calculate all the concentrations in the complexation experiments.

[3] = Binding of treprostinil diethanolamine to the 0.45-μm PTFE filters used in the assay
Experimental: as §2, with “Photographs were taken for each resin before and after complexation with treprostinil using a Leica DM IL LED light microscope and Leica DMC2900 microscope camera.” left out
as §1

Compound | stability ([1]; ambient environment) | stability ([1]; refrigerated environment) | loading efficiency (drug bound to the resin) ([2]; lower concentrations of treprostinil diethanolamine) | binding effect with PTFE filters [3] | maximum amount of treprostinil bound ([2]; plateau with increasing concentration of treprostinil diethanolamine, resin:treprostinil ratios 1:0.5 to 1:4 (w/w)) | time to equilibrium between bound and unbound treprostinil to the resins ([2]; stirring, 1 g resin in 100 mL of 10 mg/mL treprostinil solution)
CCCCC[C@H](O)CC[C@@H]1[C@H]2Cc3cccc(OCC(=O)O)c3C[C@H]2C[C@H]1O.OCCNCCO [Treprostinil diethanolamine] | stable | stable | almost all drug was bound to the resin | no binding effect | – | –
CCCCC[C@H](O)CC[C@@H]1[C@H]2Cc3cccc(OCC(=O)O)c3C[C@H]2C[C@H]1O [treprostinil] | – | – | – | – | 1.6 g/g resin | After one hour of stirring

— patent US20170095432A1, “TREPROSTINIL FORMULATIONS” (United Therapeutics Corporation, priority 2014, published 2017)
